How the values were obtained:
[1] = Growth inhibition of human NCI-H460-luc cells incubated for 72 hrs by CCK-8 assay; assay type: functional
[2] = target: T1, Bis(5'-adenosyl)-triphosphatase (Homo sapiens, UniProt P49789); assay: Inhibition of recombinant human FHIT incubated for 1hr in presence of tokyogreen-labeled CMP probe by fluorescence based analysis
[3] = Growth inhibition of human HCC827-luc cells incubated for 72 hrs by CCK-8 assay; assay type: functional
[4] = Dissociation constant, pKa of compound; assay type: physicochemical
[5] = target: T1, Bis(5'-adenosyl)-triphosphatase; assay: Inhibition of recombinant human FHIT assessed as reduction in AP3Aase activity measured after 45 mins by HPLC analysis
[6] = target: T1, Bis(5'-adenosyl)-triphosphatase; assay: Inhibition of human FHIT expressed in Escherichia coli BL21(DE3)-RIL cells using AP3A as substrate pretreated for 10 mins followed by substrate addition and measured after 1 hr by HPLC analysis

T1 sequence (P49789 whole entry): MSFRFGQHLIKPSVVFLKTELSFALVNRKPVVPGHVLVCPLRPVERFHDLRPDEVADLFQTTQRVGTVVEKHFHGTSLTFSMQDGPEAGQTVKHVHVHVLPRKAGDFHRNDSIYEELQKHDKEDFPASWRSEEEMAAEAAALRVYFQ

Structure (SMILES)	GI50 [1]	IC50 [2]	GI50 [3]	further results
NNC(=O)COc1ccc2c3c(c(=O)oc2c1Br)CCCC3	> 100 µM	4 µM	> 100 µM	–
CC(=O)c1c(OCC(=O)NO)ccc2c3c(c(=O)oc12)CCCC3	–	8.1 µM	–	–
Cc1cc(=O)oc2cc(O)c(F)cc12	–	–	–	pKa [4]: 6.3
NNC(=O)c1nn(-c2ccccc2)c(=O)cc1O	–	3.98 µM	–	–
Cc1ccccc1-c1c2ccc(=O)cc-2oc2cc(O)ccc12	–	–	–	pKa [4]: 6.2
O=C(COc1ccc2c3c(c(=O)oc2c1Br)CCCC3)NO	5.9 µM	0.12 µM	0.87 µM	IC50 [5]: 0.06 µM
CCOC(=O)c1c(C)sc(N)c1C(=O)OCC	–	1.01 µM	–	–
Cc1c(OCC(=O)NO)ccc2c3c(c(=O)oc12)CCCC3	15 µM	1.9 µM	2.6 µM	IC50 [5]: 0.14 µM
Cc1c(OCc2nn[nH]n2)ccc2c3c(c(=O)oc12)CCCC3	> 100 µM	5 µM	> 100 µM	–
COc1c(OCC(=O)NO)ccc2c3c(c(=O)oc12)CCCC3	29 µM	2.8 µM	5.3 µM	–
O=C(COc1cc2oc(=O)c3c(c2cc1Cl)CCCC3)NO	–	50 µM	–	–
COCC(=O)N1CC[C@@H]2[C@H]1C(=O)NC[C@H](CCC(=O)OC)N2C	–	4.24 µM	–	–
Cc1c(OCC(=O)O)ccc2c3c(c(=O)oc12)CCCC3	> 100 µM	11 µM	> 100 µM	–
CC1(C)CC(=O)C2=C(C1)NC1=C(C(=O)c3ccccc31)C2c1ccc(Br)cc1 (configuration not stated)	> 10 µM	8.8 µM	> 10 µM	IC50 [5]: 23 µM; IC50 [6]: 0.049 µM
O=C(COc1ccc2c3c(c(=O)oc2c1)CCCC3)NO	13 µM	5.5 µM	0.99 µM	–
O=C(O)c1ccc(/C=N/NC(=O)c2nc(-c3ccccc3)n(-c3ccccc3)n2)cc1	–	3.73 µM	–	–
O=C(O)c1ccc2[nH]c(-c3ccnc(-c4cccnc4)c3)nc2c1	–	1.58 µM	–	–
O=c1cc(C(F)(F)F)c2cc(F)c(O)cc2o1	–	–	–	pKa [4]: 5.6
O=C(COc1cc2oc(=O)c3c(c2cc1Br)CCCC3)NO	–	18 µM	–	–
CN1C(=O)N/C(=C/c2cccn2-c2ccc(C(=O)O)cc2)C1=O	–	0.77 µM	–	–
Cc1ccc(C(=O)Nc2ccc(S(=O)(=O)O)c3cc(S(=O)(=O)O)cc(S(=O)(=O)O)c23)cc1NC(=O)c1cccc(NC(=O)Nc2cccc(C(=O)Nc3cc(C(=O)Nc4ccc(S(=O)(=O)O)c5cc(S(=O)(=O)O)cc(S(=O)(=O)O)c45)ccc3C)c2)c1 [SURAMIN]	–	50 µM	–	–
CCc1c(OCC(=O)NO)ccc2c3c(c(=O)oc12)CCCC3	–	5.3 µM	–	–
Cc1c(OCc2nn[nH]n2)ccc2c3c(c(=O)oc12)CCC(C)C3 (configuration not stated)	–	4.66 µM	–	–
O=C(Cn1cc([N+](=O)[O-])ccc1=O)NC(=O)NCc1ccco1	–	3.43 µM	–	–
Cc1cc(=O)oc2c(C)c(OCC(=O)NO)ccc12	66 µM	41 µM	9.5 µM	–
